Data reported in ChEMBL document CHEMBL5649166, “RIP3 induces apoptosis independent of pronecrotic kinase activity” (Mol Cell, 2014).

Legend:
[1] = target: T1, Serine/threonine-protein kinase D2 (Homo sapiens) (UniProt Q9BZL6); assay: Residual activity of human PKD2/PRKD2 using KKLNRTLSVA as substrate at 1 uM in presence of 32P-ATP by Hotspot assay relative to control
T1 sequence (whole entry): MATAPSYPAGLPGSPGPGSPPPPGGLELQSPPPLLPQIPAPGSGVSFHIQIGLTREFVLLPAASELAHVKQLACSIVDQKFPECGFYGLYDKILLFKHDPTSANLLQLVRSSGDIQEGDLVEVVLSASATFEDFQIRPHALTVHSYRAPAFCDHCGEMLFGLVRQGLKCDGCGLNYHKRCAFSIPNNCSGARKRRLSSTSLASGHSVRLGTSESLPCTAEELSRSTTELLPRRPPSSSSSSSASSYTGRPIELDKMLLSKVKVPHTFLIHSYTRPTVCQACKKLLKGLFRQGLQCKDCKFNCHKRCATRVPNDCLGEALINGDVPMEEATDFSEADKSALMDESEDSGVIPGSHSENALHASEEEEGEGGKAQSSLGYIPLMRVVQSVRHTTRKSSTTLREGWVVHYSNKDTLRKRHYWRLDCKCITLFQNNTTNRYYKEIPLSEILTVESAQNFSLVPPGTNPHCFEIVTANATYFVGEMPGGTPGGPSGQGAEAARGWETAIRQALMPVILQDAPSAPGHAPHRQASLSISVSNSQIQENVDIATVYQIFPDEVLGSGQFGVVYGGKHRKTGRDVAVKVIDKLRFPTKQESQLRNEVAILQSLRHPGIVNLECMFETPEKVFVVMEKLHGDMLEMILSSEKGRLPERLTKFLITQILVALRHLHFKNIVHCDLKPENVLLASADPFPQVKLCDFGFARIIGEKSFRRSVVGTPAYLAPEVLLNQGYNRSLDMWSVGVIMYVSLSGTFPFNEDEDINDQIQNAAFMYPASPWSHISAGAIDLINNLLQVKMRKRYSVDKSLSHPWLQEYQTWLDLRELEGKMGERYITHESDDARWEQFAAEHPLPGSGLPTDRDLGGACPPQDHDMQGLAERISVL

[2] = target: Mast/stem cell growth factor receptor Kit (Homo sapiens) (UniProt P10721); assay: Residual activity of human c-Kit using poly[Glu:Tyr] (4:1) as substrate at 1 uM in presence of 32P-ATP by Hotspot assay relative to control
Chain of Mast/stem cell growth factor receptor Kit (Homo sapiens) (P10721 whole entry): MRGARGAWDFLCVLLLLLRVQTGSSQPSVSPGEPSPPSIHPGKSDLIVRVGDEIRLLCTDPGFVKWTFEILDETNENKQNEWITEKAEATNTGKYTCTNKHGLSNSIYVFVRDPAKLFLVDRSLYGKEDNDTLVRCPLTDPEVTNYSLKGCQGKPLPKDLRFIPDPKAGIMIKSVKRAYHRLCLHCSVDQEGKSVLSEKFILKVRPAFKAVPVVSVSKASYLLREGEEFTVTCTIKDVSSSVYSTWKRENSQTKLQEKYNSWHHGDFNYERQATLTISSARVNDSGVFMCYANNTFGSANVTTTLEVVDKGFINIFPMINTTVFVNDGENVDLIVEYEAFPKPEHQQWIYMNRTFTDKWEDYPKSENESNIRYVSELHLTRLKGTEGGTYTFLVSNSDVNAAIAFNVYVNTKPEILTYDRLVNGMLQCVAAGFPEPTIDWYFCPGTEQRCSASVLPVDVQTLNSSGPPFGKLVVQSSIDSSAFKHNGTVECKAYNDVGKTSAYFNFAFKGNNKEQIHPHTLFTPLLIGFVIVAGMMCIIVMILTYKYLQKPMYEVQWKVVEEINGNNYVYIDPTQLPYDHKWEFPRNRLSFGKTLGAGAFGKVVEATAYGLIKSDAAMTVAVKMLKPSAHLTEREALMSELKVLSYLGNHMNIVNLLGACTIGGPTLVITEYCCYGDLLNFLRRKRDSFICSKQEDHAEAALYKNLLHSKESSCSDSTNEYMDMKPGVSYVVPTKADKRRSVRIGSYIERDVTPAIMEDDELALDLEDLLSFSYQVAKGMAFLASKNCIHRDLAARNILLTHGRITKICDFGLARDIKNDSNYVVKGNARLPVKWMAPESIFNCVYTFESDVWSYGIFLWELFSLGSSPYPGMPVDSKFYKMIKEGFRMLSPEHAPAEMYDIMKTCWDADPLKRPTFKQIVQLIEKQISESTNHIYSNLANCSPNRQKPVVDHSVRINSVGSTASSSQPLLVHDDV

[3] = target: T2, cAMP-dependent protein kinase catalytic subunit PRKX (Homo sapiens) (UniProt P51817); assay: Inhibition of human PRKX using LRRASLG as substrate at 1 uM in presence of 32P-ATP by Hotspot assay relative to control; values are per cent of control
T2 sequence (whole entry): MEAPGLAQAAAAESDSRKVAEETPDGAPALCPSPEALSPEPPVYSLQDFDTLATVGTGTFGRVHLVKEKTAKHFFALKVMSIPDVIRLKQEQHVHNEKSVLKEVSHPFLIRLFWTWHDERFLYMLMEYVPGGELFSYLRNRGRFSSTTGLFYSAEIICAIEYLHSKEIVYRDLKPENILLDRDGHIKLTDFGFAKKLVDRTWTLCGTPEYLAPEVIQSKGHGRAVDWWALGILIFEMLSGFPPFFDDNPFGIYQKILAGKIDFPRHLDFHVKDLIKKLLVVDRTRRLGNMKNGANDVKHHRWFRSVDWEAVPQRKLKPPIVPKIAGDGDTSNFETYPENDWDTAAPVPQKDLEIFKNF

[4] = target: Death-associated protein kinase 1 (Homo sapiens) (UniProt P53355); assay: Inhibition of human DAPK1 using KKLNRTLSFAEPG as substrate at 1 uM in presence of 32P-ATP by Hotspot assay relative to control; values are per cent of control
Chain of Death-associated protein kinase 1 (Homo sapiens) (P53355 whole entry, looked up): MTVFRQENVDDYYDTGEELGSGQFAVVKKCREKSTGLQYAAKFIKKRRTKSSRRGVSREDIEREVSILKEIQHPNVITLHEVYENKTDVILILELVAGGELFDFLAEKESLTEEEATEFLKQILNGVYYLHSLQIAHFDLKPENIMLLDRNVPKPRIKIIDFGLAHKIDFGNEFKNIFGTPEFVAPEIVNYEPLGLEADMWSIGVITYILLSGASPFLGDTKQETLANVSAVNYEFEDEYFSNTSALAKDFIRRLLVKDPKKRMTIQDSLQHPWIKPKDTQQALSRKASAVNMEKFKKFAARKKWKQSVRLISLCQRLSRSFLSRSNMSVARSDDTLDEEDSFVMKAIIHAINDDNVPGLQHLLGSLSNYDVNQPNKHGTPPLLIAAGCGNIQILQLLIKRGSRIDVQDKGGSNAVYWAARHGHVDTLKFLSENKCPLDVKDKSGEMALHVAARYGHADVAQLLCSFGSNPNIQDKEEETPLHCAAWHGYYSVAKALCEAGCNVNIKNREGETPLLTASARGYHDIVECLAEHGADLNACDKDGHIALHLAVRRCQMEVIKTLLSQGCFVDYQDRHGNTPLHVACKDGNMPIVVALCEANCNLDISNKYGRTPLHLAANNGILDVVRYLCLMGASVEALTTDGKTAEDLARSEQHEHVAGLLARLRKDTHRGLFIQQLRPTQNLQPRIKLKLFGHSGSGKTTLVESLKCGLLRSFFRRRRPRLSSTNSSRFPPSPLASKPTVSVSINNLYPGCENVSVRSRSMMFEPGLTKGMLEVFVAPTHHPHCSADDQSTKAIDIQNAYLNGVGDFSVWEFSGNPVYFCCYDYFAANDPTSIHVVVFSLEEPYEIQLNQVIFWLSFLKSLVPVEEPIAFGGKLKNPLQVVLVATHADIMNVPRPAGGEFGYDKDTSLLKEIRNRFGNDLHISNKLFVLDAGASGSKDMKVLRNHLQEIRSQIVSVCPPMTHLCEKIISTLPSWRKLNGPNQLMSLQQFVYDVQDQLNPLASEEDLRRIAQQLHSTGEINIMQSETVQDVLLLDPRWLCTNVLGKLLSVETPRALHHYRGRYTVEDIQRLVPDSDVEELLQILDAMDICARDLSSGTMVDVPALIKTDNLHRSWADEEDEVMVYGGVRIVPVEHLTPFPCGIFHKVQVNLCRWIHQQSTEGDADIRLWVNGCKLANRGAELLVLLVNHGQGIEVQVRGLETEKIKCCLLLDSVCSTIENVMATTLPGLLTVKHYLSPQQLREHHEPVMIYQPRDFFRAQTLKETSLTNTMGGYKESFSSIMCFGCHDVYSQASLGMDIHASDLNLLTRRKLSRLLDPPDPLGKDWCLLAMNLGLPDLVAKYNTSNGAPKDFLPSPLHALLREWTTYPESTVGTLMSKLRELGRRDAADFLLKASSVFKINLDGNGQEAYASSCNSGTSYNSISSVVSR

[5] = target: Calcium/calmodulin-dependent protein kinase type 1 (Homo sapiens) (UniProt Q14012); assay: Inhibition of human CAMK1a using KKALRRQETVDAL as substrate at 1 uM in presence of 32P-ATP by Hotspot assay relative to control; values are per cent of control
Chain of Calcium/calmodulin-dependent protein kinase type 1 (Homo sapiens) (Q14012 whole entry, looked up, canonical isoform): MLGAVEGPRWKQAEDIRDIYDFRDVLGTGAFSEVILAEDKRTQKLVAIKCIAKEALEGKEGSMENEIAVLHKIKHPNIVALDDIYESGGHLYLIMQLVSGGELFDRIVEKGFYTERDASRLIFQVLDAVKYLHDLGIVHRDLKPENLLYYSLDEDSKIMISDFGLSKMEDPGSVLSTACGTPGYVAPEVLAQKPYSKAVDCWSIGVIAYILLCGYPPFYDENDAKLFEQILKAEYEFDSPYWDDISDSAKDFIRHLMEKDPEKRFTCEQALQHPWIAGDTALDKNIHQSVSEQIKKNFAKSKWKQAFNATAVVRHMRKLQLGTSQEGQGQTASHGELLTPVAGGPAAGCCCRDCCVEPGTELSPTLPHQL

[6] = target: Casein kinase I isoform gamma-3 (Homo sapiens) (UniProt Q9Y6M4); assay: Inhibition of human CK1g3 using KRRRAL[pS]VASLPGL as substrate at 1 uM in presence of 32P-ATP by Hotspot assay relative to control; values are per cent of control
Chain of Casein kinase I isoform gamma-3 (Homo sapiens) (Q9Y6M4 whole entry, looked up, canonical isoform): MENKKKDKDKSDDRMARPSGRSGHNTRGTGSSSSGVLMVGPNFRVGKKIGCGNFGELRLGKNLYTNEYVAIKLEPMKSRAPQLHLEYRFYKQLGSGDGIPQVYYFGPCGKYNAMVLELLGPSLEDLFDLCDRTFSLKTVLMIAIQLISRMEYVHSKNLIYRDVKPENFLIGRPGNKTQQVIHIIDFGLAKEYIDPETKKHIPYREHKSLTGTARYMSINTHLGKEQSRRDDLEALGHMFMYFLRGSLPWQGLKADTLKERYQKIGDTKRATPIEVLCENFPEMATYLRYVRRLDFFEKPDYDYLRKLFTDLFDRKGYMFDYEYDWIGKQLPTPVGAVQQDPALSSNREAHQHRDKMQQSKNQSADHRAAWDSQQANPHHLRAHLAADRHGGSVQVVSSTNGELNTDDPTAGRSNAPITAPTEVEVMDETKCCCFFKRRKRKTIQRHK

[7] = target: Tyrosine-protein kinase JAK1 (Homo sapiens) (UniProt P23458); assay: Inhibition of human JAK1 using poly[Glu:Tyr] (4:1) as substrate at 1 uM in presence of 32P-ATP by Hotspot assay relative to control; values are per cent of control
Chain of Tyrosine-protein kinase JAK1 (Homo sapiens) (P23458 whole entry): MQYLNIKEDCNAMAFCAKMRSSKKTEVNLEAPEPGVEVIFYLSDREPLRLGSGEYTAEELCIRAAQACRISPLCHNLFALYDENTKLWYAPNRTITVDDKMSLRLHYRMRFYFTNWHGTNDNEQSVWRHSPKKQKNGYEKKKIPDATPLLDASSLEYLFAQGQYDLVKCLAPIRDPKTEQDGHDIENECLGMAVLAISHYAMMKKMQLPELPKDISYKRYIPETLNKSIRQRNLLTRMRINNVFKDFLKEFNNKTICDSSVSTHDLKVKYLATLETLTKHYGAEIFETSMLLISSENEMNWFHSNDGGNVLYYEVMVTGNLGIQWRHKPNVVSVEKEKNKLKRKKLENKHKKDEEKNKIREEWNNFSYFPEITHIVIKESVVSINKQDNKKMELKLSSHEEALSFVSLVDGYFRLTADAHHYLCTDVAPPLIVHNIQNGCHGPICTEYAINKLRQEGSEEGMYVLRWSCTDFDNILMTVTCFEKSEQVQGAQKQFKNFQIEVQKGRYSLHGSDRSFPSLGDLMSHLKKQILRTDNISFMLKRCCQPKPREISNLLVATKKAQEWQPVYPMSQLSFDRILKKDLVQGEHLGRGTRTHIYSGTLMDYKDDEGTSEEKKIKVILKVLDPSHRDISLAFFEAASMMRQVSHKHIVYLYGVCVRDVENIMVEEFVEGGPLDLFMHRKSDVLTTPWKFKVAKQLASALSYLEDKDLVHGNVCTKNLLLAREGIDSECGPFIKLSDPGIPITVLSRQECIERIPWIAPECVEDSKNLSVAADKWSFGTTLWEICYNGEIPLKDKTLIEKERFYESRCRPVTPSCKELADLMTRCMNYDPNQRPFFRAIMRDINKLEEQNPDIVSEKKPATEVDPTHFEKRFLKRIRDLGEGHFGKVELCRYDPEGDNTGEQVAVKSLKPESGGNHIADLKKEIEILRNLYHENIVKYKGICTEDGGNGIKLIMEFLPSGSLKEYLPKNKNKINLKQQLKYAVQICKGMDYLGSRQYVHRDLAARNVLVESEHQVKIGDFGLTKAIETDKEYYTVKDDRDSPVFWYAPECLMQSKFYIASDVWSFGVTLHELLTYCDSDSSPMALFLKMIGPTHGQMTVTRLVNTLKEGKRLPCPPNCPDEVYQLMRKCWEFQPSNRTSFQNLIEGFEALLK

[8] = target: Tyrosine-protein kinase JAK2 (Homo sapiens) (UniProt O60674); assay: Inhibition of human JAK2 using poly[Glu:Tyr] (4:1) as substrate at 1 uM in presence of 32P-ATP by Hotspot assay relative to control; values are per cent of control
[9] = target: MAP kinase-interacting serine/threonine-protein kinase 2 (Homo sapiens) (UniProt Q9HBH9); assay: Inhibition of human MNK2 using myelin basic protein as substrate at 1 uM in presence of 32P-ATP by Hotspot assay relative to control; values are per cent of control
Chain of MAP kinase-interacting serine/threonine-protein kinase 2 (Homo sapiens) (Q9HBH9 whole entry, looked up): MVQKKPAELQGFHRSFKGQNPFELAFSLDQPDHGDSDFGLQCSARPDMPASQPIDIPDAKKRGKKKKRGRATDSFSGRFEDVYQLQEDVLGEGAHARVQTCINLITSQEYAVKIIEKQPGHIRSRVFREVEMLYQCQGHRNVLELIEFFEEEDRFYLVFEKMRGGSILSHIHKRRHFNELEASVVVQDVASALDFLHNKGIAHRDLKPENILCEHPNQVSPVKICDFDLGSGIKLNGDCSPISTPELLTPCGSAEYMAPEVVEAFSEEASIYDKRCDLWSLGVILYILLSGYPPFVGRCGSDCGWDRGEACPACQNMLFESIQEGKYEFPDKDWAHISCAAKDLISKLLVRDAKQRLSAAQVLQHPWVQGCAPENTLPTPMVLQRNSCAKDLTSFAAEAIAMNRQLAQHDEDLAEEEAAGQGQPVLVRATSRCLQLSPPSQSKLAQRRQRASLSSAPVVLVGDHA

SMILES	residual activity [1] [%]	residual activity [2] [%]	residual activity [3] [%]	residual activity [4] [%]	residual activity [5] [%]	residual activity [6] [%]	residual activity [7] [%]	residual activity [8] [%]	residual activity [9] [%]
Cc1cc(-c2cnc(N)c3c(-c4ccc5scnc5c4)csc23)n(C)n1	39.4	41.5	94.2	95.3	97.4	88.2	88.3	89.8	97.9
CC(C)S(=O)(=O)c1ccc2nccc(Nc3ccc4scnc4c3)c2c1	101	95.8	101	97	92.1	103	94.9	102	96
CNC(=O)c1ccc2c(c1)ncn2-c1ccc(CC(=O)OC(C)(C)C)cc1	99	74.4	93.6	91.6	95	97.5	98.2	95.7	70.6
